ChEMBL document CHEMBL4118149, “1,2,4-Triazolsulfone: A novel isosteric replacement of acylsulfonamides in the context of NaV1.7 inhibition” (Bioorg Med Chem Lett, 2018)

What was measured:
[1] = Dissociation constant, pKa of the compound by capillary electrophoresis method; type: physicochemical
[2] = Oral bioavailability in Sprague-Dawley rat at 10 mg/kg; type: ADME, organism-based; settings: in vivo
[3] = Kinetic solubility of the compound in simulated intestinal fluid; type: physicochemical; settings: simulated gi fluid
[4] = Volume of distribution at steady state in Sprague-Dawley rat at 0.5 mg/kg, iv; type: ADME, organism-based; settings: in vivo, read-out: Vdss

Structure (SMILES)	pKa [1]	further results
CC(=O)NS(=O)(=O)c1cc(F)c(COc2ccc(Cl)c(Cl)c2)cc1F	3.7	–
O=S(=O)(CC1CC1)c1nnc(-c2cc(F)c(-c3cnc(Oc4ccccc4C(F)(F)F)c(Cl)c3)cc2F)[nH]1	–	bioavailability [2]: 140%; Kinetic solubility [3]: 101 µM; Vd [4]: 0.37 L/kg
O=C(O)CNC(=O)c1cc(F)c(COc2ccc(Cl)c(Cl)c2)cc1F	3.4	–
CC(C)COc1ncc(-c2cc(F)c(-c3nnc(S(=O)(=O)C4CCC4)[nH]3)cc2F)cc1Cl	–	Vd [4]: 0.7 L/kg
CS(=O)(=O)NC(=O)c1cc(F)c(COc2ccc(Cl)c(Cl)c2)cc1F	3.1	–

Continued, in another order:

pKa [1]	Structure (SMILES)	further results
3.1	O=C(O)c1cc(F)c(COc2ccc(Cl)c(Cl)c2)cc1F	–
4.8	CS(=O)(=O)c1nnc(-c2cc(F)c(COc3ccc(Cl)c(Cl)c3)cc2F)[nH]1	–
4.3	O=c1[nH]c(-c2cc(F)c(COc3ccc(Cl)c(Cl)c3)cc2F)no1	–
